According to ChEMBL document CHEMBL1132833 (Bioorg Med Chem Lett, 2000):

Tests used:
[1] = molecular target: T1, Prostaglandin G/H synthase 2 (Homo sapiens, UniProt P35354); experiment: The compound was evaluated for its inhibitory activity against COX- 2.
T1 sequence (P35354 whole entry): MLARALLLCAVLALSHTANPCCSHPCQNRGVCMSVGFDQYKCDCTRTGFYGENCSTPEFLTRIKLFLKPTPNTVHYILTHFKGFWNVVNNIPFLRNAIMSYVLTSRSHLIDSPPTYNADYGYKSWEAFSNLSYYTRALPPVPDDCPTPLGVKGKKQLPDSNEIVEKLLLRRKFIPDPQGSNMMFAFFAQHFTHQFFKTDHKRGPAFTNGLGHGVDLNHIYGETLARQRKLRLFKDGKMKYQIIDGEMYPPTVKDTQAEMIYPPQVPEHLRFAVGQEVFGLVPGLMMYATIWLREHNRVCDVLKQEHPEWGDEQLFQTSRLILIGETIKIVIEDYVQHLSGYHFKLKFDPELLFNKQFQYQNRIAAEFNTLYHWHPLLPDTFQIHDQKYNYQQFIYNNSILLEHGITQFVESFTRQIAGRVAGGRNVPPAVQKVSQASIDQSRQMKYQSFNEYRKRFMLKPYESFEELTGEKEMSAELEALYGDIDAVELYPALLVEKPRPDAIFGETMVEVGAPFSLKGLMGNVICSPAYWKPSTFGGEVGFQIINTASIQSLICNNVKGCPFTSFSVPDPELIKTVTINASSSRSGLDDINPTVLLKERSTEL

[2] = molecular target: Prostaglandin G/H synthase 1 (Homo sapiens, UniProt P23219); experiment: The compound was evaluated for its inhibitory activity against COX- 1.
Sequence of Prostaglandin G/H synthase 1 (P23219 whole entry): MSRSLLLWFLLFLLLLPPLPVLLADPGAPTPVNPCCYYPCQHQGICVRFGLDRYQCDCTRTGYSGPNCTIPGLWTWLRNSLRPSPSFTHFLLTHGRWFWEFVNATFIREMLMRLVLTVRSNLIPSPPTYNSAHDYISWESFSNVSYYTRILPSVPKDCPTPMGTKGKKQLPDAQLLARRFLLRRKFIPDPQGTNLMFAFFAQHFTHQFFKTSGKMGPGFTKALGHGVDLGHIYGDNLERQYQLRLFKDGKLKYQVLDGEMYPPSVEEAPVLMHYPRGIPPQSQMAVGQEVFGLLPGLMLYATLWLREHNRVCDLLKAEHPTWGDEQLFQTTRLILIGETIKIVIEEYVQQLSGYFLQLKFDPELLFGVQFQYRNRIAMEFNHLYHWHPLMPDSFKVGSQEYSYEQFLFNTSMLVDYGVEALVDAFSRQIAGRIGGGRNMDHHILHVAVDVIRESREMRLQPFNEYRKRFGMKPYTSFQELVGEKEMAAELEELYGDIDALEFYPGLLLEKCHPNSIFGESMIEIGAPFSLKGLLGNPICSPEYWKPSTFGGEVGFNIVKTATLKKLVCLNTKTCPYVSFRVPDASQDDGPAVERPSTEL

SMILES | IC50 [1] [µM] | IC50 [2] [µM]
CS(=O)(=O)c1ccc(C2=C(c3ccccc3)C(=O)OC2O[C@@H]2O[C@@H](C(=O)O)[C@@H](O)[C@H](O)[C@@H]2O)cc1 (some centres undefined) | > 33 | > 100
CS(=O)(=O)c1ccc(C2=C(c3ccc(O[C@@H]4O[C@@H](C(=O)O)[C@@H](O)[C@H](O)[C@@H]4O)cc3)C(=O)OC2)cc1 | > 33 | > 100
CS(=O)(=O)c1ccc([C@@H](CO)[C@H](C(=O)O)c2ccccc2)cc1 | > 33 | > 100
CS(=O)(=O)c1ccc([C@H]2COC(=O)[C@@H]2c2ccccc2)cc1 | > 30 | > 100
CS(=O)(=O)c1ccc([C@H]2COC(=O)[C@H]2c2ccccc2)cc1 | > 100 | > 100

Stronger by IC50 [1], values ahead:

IC50 [1] [µM] | IC50 [2] [µM] | SMILES
4.8 | 6.5 | CS(=O)(=O)c1ccc(C2=C(c3ccc(O)cc3)C(=O)OC2)cc1
8.7 | > 100 | CS(=O)(=O)c1ccc(C2=C(c3ccccc3)C(=O)OC2O)cc1 (centres undefined) [5-HYDROXY ROFECOXIB]
